This assay deals with Folate binding protein (FBP, bovine milk) (Bos taurus, UniProt P02702). The assay is described as follows: SPR binding to immobilized folate binding protein. Conditions: read-out: equilibrium dissociation constant KD, FBP chip, free MTX. A general note: Surface plasmon resonance follows binding to a sensor surface in real time, without labels.

Results on one compound are retold here after patent US9402911B2, “Multifunctional small molecules” (The Regents of the University of Michigan, priority 2011, dated 2016).

Folate binding protein (FBP, bovine milk), sequence (P02702 20-234): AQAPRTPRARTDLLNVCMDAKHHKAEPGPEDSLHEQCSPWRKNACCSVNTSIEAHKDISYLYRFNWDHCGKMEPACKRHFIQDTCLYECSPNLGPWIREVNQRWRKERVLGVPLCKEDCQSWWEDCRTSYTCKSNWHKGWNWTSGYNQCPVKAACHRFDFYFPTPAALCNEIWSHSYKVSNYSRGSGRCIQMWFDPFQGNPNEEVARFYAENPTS
Description: SPR analysis was performed in a Biacore® X instrument (Pharmacia Biosensor AB, Uppsala, Sweden).
Folate binding protein (FBP)-presenting chip was prepared at the surface protein density of 11 ng/mm^2 (≈2-3 FBP per 10 nm^2) following an EDC-based amide coupling method as described previously (see, e.g., Hong, S.; et al., Chem. Biol. 2007, 14, 107-15; Plantinga, A.; et al., ACS Med. Chem. Lett. 2011, 2, 363-67; each herein incorporated by reference in their entireties).
In an approach to determine the equilibrium dissociation constants (KD) for G5-MTXn on a quantitative basis, the SPR data was analyzed by using the non-linear regression method as established for SPR analysis (see, e.g., Ober, R. J.; et al., Anal. Biochem. 2003, 312, 57-65; herein incorporated by reference in its entirety). This analytical method enabled the SPR data to be fit according to a linear combination of exponential functions, and to extract the estimates for their kinetic rate constants (kon, koff) and KD (FIG. 7).

On to `CN(Cc1cnc2nc(N)nc(N)c2n1)c1ccc(C(=O)N[C@@H](CCC(=O)O)C(=O)O)cc1` [MTX, methotrexate], for which the Kd was found to be 24 µM.

What is called Kd is the constant that tells how readily two partners part at equilibrium.
